Patent US20160166572A1, “BENEFICIAL EFFECTS OF Lp-PLA2 INHIBITORS IN TREATMENT OF DIABETIC RETINOPATHY AND AGE-RELATED MACULAR DEGENERATION” (Rowan University, priority 2014, published 2016)

How the values were obtained:
GFAP = GFAP expression in retina (immunofluorescence), DMHC pigs; assay type: in vivo, pig; settings: Darapladib 10 mg/kg/d orally, 24 weeks
Experimental: Briefly, after induction of diabetes by a single injection of Streptozotocin, animals were fed a high cholesterol diet. After a month of DMHC induction and acclimation, animals were randomly segregated to untreated DMHC and Darapladib-treated DMHC groups. Darapladib-treated pigs received 10 mg/kg/d of Darapladib orally. Three of the pigs were spared from DMHC induction and served as age-matched, non-DMHC normal controls. Twenty four weeks after acclimation, animals were euthanized and their brains and eyes were immediately removed. Brains were divided anteroposteriorly into anterior, middle and posterior regions. For each of these brain regions, 2-3 tissue blocks were generated for routine tissue fixation (10% formalin) or freezing and histological processing. […] Cells positive for GFAP were counted throughout the whole thickness of the retina, and then quantified using ImagePro7.0 (Media Cybernetics, Silver Spring, Md.). Briefly, a 300×300 pixel square area was randomly made in each retinal section in three contiguous locations across the retina and the positive GFAP area was determined per total area using a fixed threshold. […] Cell number was determined by counting the DAPI-positive nuclei in a fixed area. […] GFAP-positive fluorescence extended from inner to outer limiting membranes in the DMHC group, confirming that GFAP was predominantly being expressed by Müller cells (FIGS. 5A-E). […]

claudin5 = experiment: Claudin5 gene expression in cerebral cortex (RT-PCR, beta-actin reference), DMHC pigs; assay type: in vivo, pig; settings: Darapladib 10 mg/kg/d orally, 24 weeks, rank among treatment groups, FIG. 8A
Experimental: Briefly, after induction of diabetes by a single injection of Streptozotocin, animals were fed a high cholesterol diet. After a month of DMHC induction and acclimation, animals were randomly segregated to untreated DMHC and Darapladib-treated DMHC groups. Darapladib-treated pigs received 10 mg/kg/d of Darapladib orally. Three of the pigs were spared from DMHC induction and served as age-matched, non-DMHC normal controls. Twenty four weeks after acclimation, animals were euthanized and their brains and eyes were immediately removed. Brains were divided anteroposteriorly into anterior, middle and posterior regions. […]
Relative quantification of claudin5 and occludin gene expression was carried out using the reporter dye SYBR green and Applied Biosystems 7500 real time polymerase chain reaction (RT-PCR) system. […] Relative quantification of the claudin5 and occludin gene expression was conducted using beta actin (β-actin), a house keeping gene, as a standard. The amplification profiles of all samples were analyzed using Applied Biosystems software. […]
Changes in claudin 5 and occludin gene expression in response to DMHC and Darapladib treatment were assessed in the middle brain region only of the pig cerebral cortex by real-time polymerase chain reaction (RT-PCR) using beta-actin as a reference (FIG. 8).

## CCN(CC)CCN(Cc1ccc(-c2ccc(C(F)(F)F)cc2)cc1)C(=O)Cn1c(SCc2ccc(F)cc2)nc(=O)c2c1CCC2 [Darapladib]
GFAP; FIG. 5D
  intensity of GFAP immunostaining (GFAP expression) in retina: dramatically lower GFAP expression in the retinas of DMHC pigs, it was still significantly higher than in controls
GFAP; compared to DMHC only, FIGS. 5A-C
  GFAP immunoreactivity, distribution in retina: reduced and confined to the GCL
claudin5
  claudin5 gene expression, middle brain region of cerebral cortex: highest claudin5 and occludin levels
